Reference: patent US8871280B1, “Compositions and methods for treating fungal activity in plants or soil” (The United States of America, as represented by the …, priority 2011, dated 2014)

What was measured:
Rhizoctonia solani [1] = assay: Fungicidal vs fungistatic potential (regrowth of mycelial plugs on fresh PDA, 7 days); assay type: cell-based, Rhizoctonia solani AG-4, isolate Rs 23A
Method: The fungicidal and fungistatic potential of the PEs were determined by the method described by Garber and Houstan (Garber R. H., and B. R. Houston, Phytopathology, 49: 449-450 (1959)). In brief, three 5 mm diameter plugs were taken from the peripheral mycelial growth from each plate and placed in a fresh PDA plate. Following incubation at room temperature for 7 days, observations were recorded for new mycelial growth (fungistatic) or no mycelial growth (fungicidal). As control, peripheral mycelial plugs from soybean oil amended PDA plates were checked for fresh mycelial growth in fresh PDA plates.

Rhizoctonia solani [2] = assay: Filter disk fumigation method, mycelial growth inhibition on PDA; assay type: cell-based, Rhizoctonia solani AG-4, isolate Rs 23A; details: for Fumig1 % inhibition: fumigation experiment 1; for Fumig2 % inhibition: fumigation experiment 2
Method: (§1) Fungal isolate and preparation of inoculum: Rhizoctonia solani AG-4, isolate Rs 23A is a highly virulent pathogenic isolate which infects many vegetables, ornamentals and turfgrasses (Lewis, J. A., and G. C. Papavizas, Soil Biology and Biochemistry, 9:195-201 (1987)). The fungus was grown in potato dextrose agar (PDA) plates and fungal plugs from the freshly growing mycelium were mixed with moist sterilized cracked wheat in a 2 L flask for 15 days in dark at 22° C. (Lakshman, D. K., et al., Proceedings of the National Academy of Science, USA, 95: 6425-6429 (1998)). The infested wheat was air dried in a sterile hood for 3 days, blended in a homogenizer and sieved through a mesh and stored at 2° C. before soil inoculation. A dose response of the inocula was carried out by thoroughly mixing using 0.25, 0.5, 0.75, 1.0, 1.25 and 1.50 g inoculums per Kg dry weight potting soil plus sterile water to maintain 25-30% moisture and incubating at room temperature for two weeks before sowing cucumber (cv muncher) seeds with the infested soil. The percent germination and post-emergence damping off of cucumber seedlings were recorded. The lowest inoculums dose that induced 100% postemergence damping off was estimated to be 1 to 1.25 g/Kg soil for inocula prepared over the span of the experiments. For soil fumigation with plant extracts (PEs), each time the minimum inoculum dose giving rise to 100% damping off was used.
In the second protocol, the chemical was kept not in direct contact with the fungus and we hypothesized that the plant extract will most likely influence the growth of the pathogen by fumigation action. In this approach, three sterile 15 mm filter paper (Whatman International Ltd, Maidstone, UK) disks were placed on the edge of each of three plates on the PDA. Each disk was impregnated in the center with various amounts (5-50 ul/disk) of the test solution/suspension. For negative control, only soybean oil was placed in the filter disk. […] The average radial growth was calculated and the experiment was repeated one more time. Percent growth inhibition was calculated as reported for poison bed assay.

Rhizoctonia solani [3] = assay: Greenhouse suppression of damping off of cucumber seedlings in R. solani infested soil amended with plant extract; assay type: in vivo, Rhizoctonia solani AG-4, isolate Rs 23A
Rhizoctonia solani [4] = assay: Poison food technique (contact action), mycelial growth inhibition in PDA; assay type: cell-based, Rhizoctonia solani AG-4, isolate Rs 23A; details: for PoisonB1 % inhibition: poison bed experiment 1; for PoisonB2 % inhibition: poison bed experiment 2
Method: as §1
In vitro bioassays: Two in vitro bioassay methods were used to investigate the mycelial growth inhibitory potentials of PEs. In the poison food technique, test chemical/plant extract was mixed at concentrations of 15, 30, 45, 60, 75, and 150 μl per 20 ml autoclaved PDA at 50° C., poured on three sterile disposable plastic plates (100×15 mm, Fisherbrand) at 20 ml/plate and cooled to room temperature to solidify (Dhingra, O.D., and J. B. Sinclair, 1995, Basic Plant Pathology Methods, 2nd Edition, Lewis Publishers, Boca Raton and London). […] Each plate was seeded in the center with a 5 mm diameter agar disk of the freshly grown Rhizoctonia pathogen, mycelial side facing the medium, and sealed with stretched Parafilm® M (Fisher Scientific). The plates were incubated in the dark at room temperature and when the pathogen reached to the edge of the plates in the control treatment (soybean oil), radial measurement of fungal growth in plates treated with PEs were recorded by taking three measurements from each plate. The experiment was repeated one more time. The percent mycelial growth inhibition (MGI) due to PE was calculated using the following formula: […] where dc=Avg. radial growth in mm of pathogen in control plate; dt=avg. radial growth in mm of pathogen in treated plate.

cucumber seeds = assay: Greenhouse assay of seed germination and phytotoxicity, soil treated with plant extract alone; details: in vivo
Method: Soil treatment: For each treatment, 300 g of dry greenhouse soli (Pro-mix, Premier Horticulture LTD, Red Hill, Pa.) was thoroughly mixed with Rhizoctonia inoculum and incubated for 15 days as described above. […] The infested soil treated with only the carrier solution served as an untreated control. Following the treatment, the soil was thoroughly stirred to mix the contents and incubated in a double polythene bag closed tightly in the dark at room temperature for four days for fumigation to occur. Following the incubation, the bag was opened to allow as much PE to dissipate as possible. This was done by sprinkling the surface soil with sterile water every other day, and stirring the soil once every day for seven days. For assay of effect on seed germination and phytotoxicity of the plant extracts, soil was treated with plant extract formulations alone.
Greenhouse studies: Treated soil from each treatment was distributed to 4-inch plastic pots into which 12 seeds of cucumbers (95-100% germination) were sown and lightly watered to keep soil moist. The treatments were color coded and pots were randomized across treatment. All plants were kept in a greenhouse between 20° C. (night) to 26° C. (day) with 14 h of light. There were three pots per treatment in each experiment, and the experiment was repeated three times. As positive control, a broad spectrum popular soil fungicide Banrot® 40 WP (The Scotts Company, Ohio) was used following manufacturer's recommendation to control the disease. Total number of seedlings without any sign of damping off in each pot was recorded and percentage of disease suppression were calculated four weeks after sowing cucumber seeds.

C=CCc1ccc(OC)cc1
Effect (fumigation) (Rhizoctonia solani [1]; amount oil 15 μL/20 mL plate): S | Effect (poison bed, contact action) (Rhizoctonia solani [1]; amount oil 15 μL/20 mL plate): S | Effect (fumigation) (Rhizoctonia solani [1]; amount oil 30 μL/20 mL plate): S | Effect (poison bed, contact action) (Rhizoctonia solani [1]; amount oil 30 μL/20 mL plate): S | Effect (fumigation) (Rhizoctonia solani [1]; amount oil 45 μL/20 mL plate): S | Effect (poison bed, contact action) (Rhizoctonia solani [1]; amount oil 45 μL/20 mL plate): S | Effect (fumigation) (Rhizoctonia solani [1]; amount oil 60 μL/20 mL plate): S | Effect (poison bed, contact action) (Rhizoctonia solani [1]; amount oil 60 μL/20 mL plate): S | Effect (fumigation) (Rhizoctonia solani [1]; amount oil 75 μL/20 mL plate): S | Effect (poison bed, contact action) (Rhizoctonia solani [1]; amount oil 75 μL/20 mL plate): S | Effect (fumigation) (Rhizoctonia solani [1]; amount oil 150 μL/20 mL plate): S | Effect (poison bed, contact action) (Rhizoctonia solani [1]; amount oil 150 μL/20 mL plate): S | Fungicidal vs fungistatic nature (Rhizoctonia solani [1]; in vitro, fumigation and contact action): fungistatic | Fumig1 % inhibition (Rhizoctonia solani [2]; amount oil 15 μL/20 mL plate): 95% | Fumig2 % inhibition (Rhizoctonia solani [2]; amount oil 15 μL/20 mL plate): 97% | Fumig1 % inhibition (Rhizoctonia solani [2]; amount oil 30 μL/20 mL plate): 97% | Fumig2 % inhibition (Rhizoctonia solani [2]; amount oil 30 μL/20 mL plate): 102% | Fumig1 % inhibition (Rhizoctonia solani [2]; amount oil 45 μL/20 mL plate): 97% | Fumig2 % inhibition (Rhizoctonia solani [2]; amount oil 45 μL/20 mL plate): 102% | Fumig1 % inhibition (Rhizoctonia solani [2]; amount oil 60 μL/20 mL plate): 97% | Fumig2 % inhibition (Rhizoctonia solani [2]; amount oil 60 μL/20 mL plate): 100% | Fumig1 % inhibition (Rhizoctonia solani [2]; amount oil 75 μL/20 mL plate): 98% | Fumig2 % inhibition (Rhizoctonia solani [2]; amount oil 75 μL/20 mL plate): 103% | Fumig1 % inhibition (Rhizoctonia solani [2]; amount oil 150 μL/20 mL plate): 99% | Fumig2 % inhibition (Rhizoctonia solani [2]; amount oil 150 μL/20 mL plate): 103% | Inhibition of R. solani growth by fumigation action, in words (Rhizoctonia solani [2]; in vitro, filter disk): potent inhibitors | % Disease suppression (+ PE + R. solani) (Rhizoctonia solani [3]; cucumber damping off, soil amendment at 0.3% (v/w), four weeks after sowing): 58.33% | Avg. seed Germination (+ PE + R. solani) (Rhizoctonia solani [3]; cucumber, 12 seeds sown per pot, infested soil amended with 0.3% PE): 7.00 | PoisonB1 % inhibition (Rhizoctonia solani [4]; amount oil 15 μL/20 mL plate): 94% | PoisonB2 % inhibition (Rhizoctonia solani [4]; amount oil 15 μL/20 mL plate): 13% | PoisonB1 % inhibition (Rhizoctonia solani [4]; amount oil 30 μL/20 mL plate): 100% | PoisonB2 % inhibition (Rhizoctonia solani [4]; amount oil 30 μL/20 mL plate): 56% | PoisonB1 % inhibition (Rhizoctonia solani [4]; amount oil 45 μL/20 mL plate): 100% | PoisonB2 % inhibition (Rhizoctonia solani [4]; amount oil 45 μL/20 mL plate): 92% | PoisonB1 % inhibition (Rhizoctonia solani [4]; amount oil 60 μL/20 mL plate): 100% | PoisonB2 % inhibition (Rhizoctonia solani [4]; amount oil 60 μL/20 mL plate): 100% | PoisonB1 % inhibition (Rhizoctonia solani [4]; amount oil 75 μL/20 mL plate): 100% | PoisonB2 % inhibition (Rhizoctonia solani [4]; amount oil 75 μL/20 mL plate): 100% | PoisonB1 % inhibition (Rhizoctonia solani [4]; amount oil 150 μL/20 mL plate): 100% | PoisonB2 % inhibition (Rhizoctonia solani [4]; amount oil 150 μL/20 mL plate): 100% | Inhibition of R. solani growth by contact (poison bed assay), in words (Rhizoctonia solani [4]; in vitro, PDA): potent inhibitors | % Seed germination (+ PE only) (cucumber seeds): 75.00% | Avg. seed germination (+ PE only) (cucumber seeds): 9.00
